For 84 molecules, EC50 results are on record in PubChem BioAssay AID489027 (Sanford-Burnham Center for Chemical Genomics, 2010).

Activity calls are given as the source filed them. How the calls were made is not given here.

In the assay the target is UPR counterscreen luciferase reporter, luminescence. Put plainly: activators in UPR counterscreen luciferase reporter, dose response, counter-screen for adaptive UPR activator project, cell-based, luminescence (AID 489027). On the technique in general: A counterscreen serves to expose hits that act by an unwanted route or on another target.

`O=C(Nc1ccc(C(F)(F)F)cc1)c1cc(-c2cccnc2)nc2ccc(Br)cc12`: the EC50 was 11.5 µM.

On to `O=C(/C=C/c1ccco1)NC(=S)Nc1ccc(O)c(-c2nc3ccccc3s2)c1`, for which the EC50 is 11 µM.

For `Cc1ccc(-c2[nH]ncc2/C=N/n2c(COc3ccccc3)nc3ccccc3c2=O)cc1`, the EC50 result was “inactive”.

In the case of `Cc1ccc(Nc2nc(-c3c(C)nc4ccccn34)cs2)cc1`, the EC50 is > 80 µM (inactive).

In the case of `CCc1ccc2[nH]c3nc(SCc4nnc(-c5ccc(C)cc5)o4)nnc3c2c1`, the EC50 entry was “inactive”.

Consider `OC(CNCC1CCCO1)Cn1c2ccc(Cl)cc2c2cc(Cl)ccc21` (centres undefined), for which the EC50 was > 80 µM (inactive).

For the molecule `O=C(/C=C/c1ccccc1)c1ccccc1O`, the EC50 was 13.2 µM.

For `O=C(/C(=N/N=C/c1ccc(O)c(O)c1)c1ccccc1)c1ccccc1`, the concentration for a half-maximal effect (EC50) was 8.07 µM.

Consider `CC1(C)C[C@H](O)[C@]2(CO)[C@H](O)C[C@]3(C)C(=CCC4[C@@]5(C)CC[C@H](O)C(C)(C)C5CC[C@]43C)[C@@H]2C1` (some centres undefined), for which the EC50 is > 80 µM (inactive).

On to `CCOc1cc(/C=N/N=C(/N)c2nonc2N)cc(Br)c1OCc1ccc(Cl)cc1`, for which the EC50 was > 80 µM (inactive).

Regarding `COc1ccc(-c2csc(NC(=S)NC(=O)/C=C/c3ccco3)n2)cc1Br`, the EC50 entry was “inactive”.

Regarding `O=c1cc2oc3cc(O)c(O)cc3c(-c3ccccc3[N+](=O)[O-])c-2cc1O`, the EC50 is > 80 µM (inactive).

Turning to `CCOC(=O)C1=C(C)n2c(s/c(=C/c3cccc([N+](=O)[O-])c3)c2=O)=NC1c1ccc(O)c(OC)c1` (centres undefined), the EC50 result was “inactive”.

Regarding `O=C(/C=C\c1cn(-c2ccccc2)nc1-c1ccccc1)Nc1nccs1`, the EC50 was > 80 µM (inactive).

For the molecule `COc1ccc(C(=O)/C=C/c2ccc(O)cc2)c(O)c1C/C=C(\C)CCC=C(C)C`, the EC50 was 15.2 µM.

Regarding `CCOC(=O)c1c(NC(=O)CSc2nnc3c(n2)[nH]c2ccc(F)cc23)sc(C(C)=O)c1C`, the EC50 was 17.4 µM.

On to `CN(C)S(=O)(=O)c1ccc(N2CCCC2)c(C(=O)Nc2nccs2)c1`, for which the EC50 result was “inactive”.

For the molecule `COc1cc(/C=N/Nc2nc(Nc3ccccc3)nc(-n3nc(C)cc3C)n2)cc(OC)c1OC`, the EC50 is > 80 µM (inactive).

In the case of `O=c1cc(CN2CCN(c3ccc(F)cc3)CC2)c2cc3c(cc2o1)CCCC3`, the EC50 is 8.79 µM.

As to `COCc1cc(C)nc(OCC(=O)N/N=C/c2ccc(-c3cc([N+](=O)[O-])ccc3Cl)o2)c1C#N`, the EC50 is 13.6 µM.

For `O=C(/C=C/c1ccccc1)NC(NC(=S)Nc1cccc(Cl)c1)C(Cl)(Cl)Cl` (centres undefined), the EC50 is > 80 µM (inactive).

Turning to `CCOC(=O)Cc1csc(/N=C/c2c(O)n(-c3ccc(C)c(C)c3)c(=O)c3ccccc23)n1`, the EC50 is 7.15 µM.

Take `CCCCN1C(=O)C(=O)c2cc(Cl)ccc21`: the EC50 entry is “inactive”.

`O=C(NC1CCCCC1)c1cccc2c1C(=O)c1ccc(-c3ccc(OC(F)(F)F)cc3)cc1S2(=O)=O`: the EC50 is > 80 µM (inactive).

Turning to `Fc1ccc(Nc2nc(NCc3ccco3)c3ccccc3n2)cc1`, the EC50 is > 80 µM (inactive).

With `COC(=O)c1c(C)oc2ccc(N(C(=O)Oc3ccccc3)S(=O)(=O)c3ccc(Cl)c([N+](=O)[O-])c3)cc12`, the EC50 is 12.5 µM.

On to `CCc1nn(-c2cc(Oc3cccc4ccccc34)nc(-c3ccccc3)n2)c(N)c1C#N`, for which the EC50 was > 80 µM (inactive).

`CC(C)(C)c1cc(-c2nc(N)nc(N)n2)c(O)c(C(C)(C)C)c1`: the EC50 result was “inactive”.

Consider `COc1cc(C(=O)Nc2nc(-c3ccc(Cl)cc3)c(C)s2)ccc1OCC(=O)Nc1ccc(F)cc1`, for which the EC50 is 17.9 µM.

Regarding `CCCNC(=O)/C(C#N)=C1\N=C(NC(=O)c2cccs2)c2ccccc21`, the EC50 is > 80 µM (inactive).

As to `O=C(NC(=S)Nc1cc(-c2nc3ccccc3[nH]2)ccc1Cl)c1ccc2c(c1)OCO2`, the EC50 was 8.21 µM.

For the molecule `CC(C)c1cccc(-c2ccc3c(c2)S(=O)(=O)c2cccc(C(=O)NCc4ccccc4Cl)c2C3=O)c1`, the EC50 is 7.24 µM.

Take `C#CCn1c(=NC(=O)c2ccc(S(=O)(=O)N3CCc4ccccc4C3)cc2)sc2cc(S(N)(=O)=O)ccc21`: the EC50 is > 80 µM (inactive).

Turning to `Cn1nnnc1Sc1ncnc2scc(-c3ccc(Br)cc3)c12`, the EC50 was 17.1 µM.

In the case of `Oc1ccc(/C=N/Nc2cc(N3CCOCC3)nc(N3CCOCC3)n2)cc1O`, the EC50 is 3.8 µM.

Consider `CC(C)C(=O)N(c1cc2sc(=O)oc2c2ccccc12)S(=O)(=O)c1cccs1`, for which the EC50 is 16.3 µM.

Take `O=C(c1ccc2c(c1)[nH]c(=S)n1c3ccccc3nc21)N1CCN(c2cccc(Cl)c2)CC1`: the EC50 is 16.4 µM.

As to `Cc1ccc(O)c(NC(=S)NC(=O)Cc2ccc(Cl)cc2)c1`, the EC50 entry was “inactive”.

In the case of `CCOc1ccc(NC(=S)NC(=O)/C=C/c2ccc(C)cc2)c([N+](=O)[O-])c1`, the EC50 is > 80 µM (inactive).

Take `CCCNC(=O)c1c(N)n(-c2ccc3c(c2)OCO3)c2nc3ccccc3nc12`: the EC50 is > 80 µM (inactive).

As for `O=C(Nc1nc2ccc(Cl)cc2s1)c1ccc(N2CCCCC2)c([N+](=O)[O-])c1`, the EC50 entry is “inactive”.

For the molecule `O=C1NC(=O)N(Cc2ccc(F)cc2)C(=O)/C1=C/c1cccs1`, the EC50 is 13.8 µM.

In the case of `O=c1cc(CN2CCN(c3ccccc3)CC2)c2cc(O)c(-c3ccccc3)cc2o1`, the concentration giving a half-maximal response (EC50) is 7 µM.

On to `Cc1ccc(Nc2nc(NCc3ccco3)c3ccccc3n2)cc1`, for which the EC50 was > 80 µM (inactive).

Consider `O=C(Nc1ccc(NC(=O)c2sc3ccccc3c2Cl)cc1Cl)c1ccco1`, for which the EC50 result is “inactive”.

For `O=C(Oc1ccc(F)cc1C(=O)/C=C/c1cccs1)c1cccc([N+](=O)[O-])c1`, the EC50 entry is “inactive”.

For the molecule `CC(C)N=C(NS(=O)(=O)c1ccccc1)C(Cl)(Cl)Cl`, the EC50 is > 80 µM (inactive).

As for `Cc1cc(NC(=O)CSc2nc3sc(C)c(C)c3c(=O)n2C2CCCC2)no1`, the EC50 was > 80 µM (inactive).

Consider `CCc1nc(N=Nc2c(O)[nH]c3ccccc23)c2c3c(sc2n1)CCC3`, for which the EC50 was 10.7 µM.

Take `O=C(Nc1cccc(-c2nc3cccnc3s2)c1)C1c2ccccc2Oc2ccccc21`: the concentration giving a half-maximal response (EC50) was 4.35 µM.

Turning to `C=CCN=C1S/C(=C/c2cccc([N+](=O)[O-])c2)C(=O)N1CC=C`, the EC50 entry was “inactive”.

With `COc1cc2[nH]c3c(N4CCN(c5ccc(Cl)cc5)CC4)ncnc3c2cc1OC`, the EC50 is > 80 µM (inactive).

Turning to `COc1ccc2nc(/C(C#N)=C\c3ccc(Oc4ccc([N+](=O)[O-])cn4)cc3)[nH]c2c1`, the EC50 was > 80 µM (inactive).

Take `COc1cc([N+](=O)[O-])cc(/C=N/NC(=O)c2ccc(NC(=O)c3ccc(C)cc3)cc2)c1O`: the EC50 result is “inactive”.

Regarding `CCC(=O)Nc1ccc(-c2cc(-c3ccccc3)nc(-c3ccc(NC(=O)CC)cc3)n2)cc1`, the EC50 is > 80 µM (inactive).

As to `Cc1ccc2c(c1)C(=O)C(=O)N2Cc1ccc(C(F)(F)F)cc1`, the EC50 result is “inactive”.

With `NC(=S)N/N=C/c1ccc(C23CC4CC(CC(C4)C2)C3)cc1`, the EC50 was 13.8 µM.

For the molecule `CCCCCCCC(=O)Nc1ccc(C(=O)N/N=C/c2cccc([N+](=O)[O-])c2)cc1`, the EC50 was 2.33 µM.

Consider `Cc1cccn2c(=O)c3cc(C(=O)NC4CCCCCC4)sc3nc12`, for which the EC50 was > 80 µM (inactive).

With `COc1ccc(N=c2oc3ccc(OC)cc3cc2-c2nc3ccccc3[nH]2)cc1`, the EC50 is 6.79 µM.

`CC1=C(CC/C(C)=N/NC(N)=S)C(C)(C)CCC1`: the EC50 was 13.9 µM.

Consider `Cc1ccc(-c2nc(N/N=C/c3cccc([N+](=O)[O-])c3)c3ccccc3n2)cc1`, for which the EC50 is > 80 µM (inactive).

As to `OC(CNCC1CCCO1)Cn1c2ccc(Br)cc2c2cc(Br)ccc21` (centres undefined), the EC50 was > 80 µM (inactive).

For the molecule `COc1cc(NC(=O)c2cncc(-c3ccc(C#N)cc3)c2)cc(C(=O)Nc2cccc(C(F)(F)F)c2)c1`, the EC50 result was “inactive”.

As to `N#C/C(=C\c1ccc(OCc2ccccc2)cc1)C(=O)Nc1nc2c(s1)CCN(Cc1ccccc1)C2`, the EC50 is 13.3 µM.

Take `CCOC(=O)c1c(NC(=O)Cc2cccs2)sc(C(=O)NC2CCCCC2)c1C`: the EC50 is > 80 µM (inactive).

Turning to `CCOc1ccccc1N=Cc1c(O)c2ccccc2oc1=O`, the EC50 was 8.11 µM.

As for `O=C(Nc1nc(-c2ccc(F)c(F)c2)cs1)Nc1ccc(F)cc1F`, the EC50 was 13.4 µM.

Regarding `CCCOC(=O)c1cccc(Nc2nc(-c3cccnc3)nc3ccccc23)c1`, the EC50 is > 80 µM (inactive).

For `O=C(NCC1CCCO1)c1nn2c(C(F)(F)F)cc(-c3cc(Br)cs3)nc2c1Br` (centres undefined), the EC50 is > 80 µM (inactive).

Consider `COc1ccc2cc1Oc1ccc(cc1)C[C@H]1c3c(cc(OC)c4c3Oc3c(ccc5c3[C@H](C2)N(C)CC5)O4)CCN1C`, for which the EC50 is 7.91 µM.

With `Cc1cccc(N2CCN(C(=S)Nc3ccc4nc(N5CCN(C)CC5)cc(C)c4c3)CC2C)c1` (centres undefined), the EC50 was > 80 µM (inactive).

As to `COc1ccc(-c2nn(-c3ccccc3)cc2/C=N/N2C(=O)CSC2=S)cc1`, the EC50 is > 80 µM (inactive).

In the case of `Brc1ccc(-c2ccc(/C=N/Nc3nncc(-c4ccccc4)n3)o2)cc1`, the EC50 was 17.4 µM.

As for `OCCCn1c(C2CCCN2c2nc(-c3ccc(Cl)cc3)cs2)nc2cc(Cl)c(N3CCCCC3)cc21` (centres undefined), the EC50 result is “inactive”.

Consider `C=CCN1C(=O)/C(=C2/Sc3ccc(OC)cc3N2C)SC1=Nc1cccc(O)c1`, for which the EC50 is > 80 µM (inactive).

As to `COc1ccc(NC(=O)CSc2nc3ccc(Nc4nc(N5CCOCC5)nc(N5CCOCC5)n4)cc3s2)cc1`, the EC50 was > 80 µM (inactive).

Turning to `COc1cc(-c2noc(C)c2/C=C/c2ccc(OC(C)=O)cc2)cc(OC)c1OC`, the EC50 is > 80 µM (inactive).

Turning to `O=C(Nc1nc2ccccc2s1)c1cc2c(s1)-c1ccccc1OC2`, the EC50 entry was “inactive”.

As for `Cc1ccc2oc(C(Cl)(Cl)Cl)cc(=O)c2c1`, the EC50 is > 80 µM (inactive).

For the molecule `O=C(N/N=C/c1ccc(O)c(O)c1)c1ccc(CSc2cccc3cccnc23)cc1`, the EC50 was 15.2 µM.

As to `Cc1cccc2c1Sc1ccc(Cl)cc1CC2N1CCNCC1` (centres undefined), the EC50 was > 80 µM (inactive).

With `Cn1nc(C(F)(F)F)c(/C=N/OC(=O)c2ccccc2)c1SCc1ccccc1Cl`, the EC50 entry was “inactive”.

Regarding `Nc1c(C(=O)Nc2ccc(S(=O)(=O)N3CCCC3)cc2)sc2nc3ccc(OC(F)(F)F)cc3cc12`, the EC50 was 4.39 µM.

Broadly, the EC50 is the concentration giving half of the maximal effect.
